Measurements from patent JP2008297320A (priority 2000, dated 2001).

Assay: Test Example 2: persistence of Compound B concentration in mouse lung tissue (14C-labelled compounds)
Type: in vivo
Conditions: Balb/C mice (female), up to 72 h
[1] = intranasal 14C-labelled Compound A 0.3 and 1 μmol/kg

Row | SMILES | disappearance of Compound B from lung tissue (intranasal 14C-labelled Compound B 4 μmol/kg) | conversion of Compound A (ester derivative) to Compound B (active form) [1] | persistence of Compound B (active form) concentration in lung tissue after administration of Compound A [1]
1 | CO[C@@H]([C@@H]1OC(C(=O)O)=C[C@H](NC(=N)N)[C@H]1NC(C)=O)[C@H](O)CO [化合物B, 5-アセタミド-4-グアニジノ-2、3、4、5-テトラデオキシ-7-メトキシ-D-グリセロ-D-ガラクト-ノン-2-エノピラソン酸, reference compound] | 速やかに肺組織から消失した | – | –
2 | CCCCCCCC(=O)OC[C@@H](O)[C@@H](OC)[C@@H]1OC(C(=O)O)=C[C@H](NC(=N)N)[C@H]1NC(C)=O [化合物A, 5-アセタミド-4-グアニジノ-9-O-オクタノイル-2、3、4、5-テトラデオキシ-7-メトキシ-D-グリセロ-D-ガラクト-ノン-2-エノピラソン酸] | – | 速やかに変換される | 長期にわたり持続した
